Literature values, collected in patent US6472362B1, “Detergent compositions in tablet form” (Unilever Home & Personal Care USA division of Conopco, Inc., priority 1997, dated 2002).
Read-outs that look alike come from different tables or passages of the source.

[1] = other common materials, at 200° C. (so in the source)

| Structure (SMILES) | solubility in water (at 20° C.) | Water Solubility (g/100 g) (highly water-soluble materials, saturated solution in 100 grams of water at 20° C.) | Water Solubility (g/100 g) [1] [g/100 g] |
| --- | --- | --- | --- |
| NC(N)=O [Urea] | exceeding 100 gms per 100 ml water | >100 |  |
| O=BO[O-].[Na+] [Sodium perborate anhydrous] |  |  | 3.7 |
| O=P(O)(O)OP(=O)(O)OP(=O)(O)O [Sodium tripolyphosphate anhydrous] |  |  | 15 |
